# Results: PubChem BioAssay AID206 (DTP/NCI, 2004)
# Records with an inconclusive call do not appear. Starred links: 1 amine or outer side, 2 acyl side, 3 side chain; linkers in the order of their positions; H or OH if unused. Positions of bridges follow the written chain, without caps; N, C: chain ends. Non-standard residues stand in square brackets, D forms with d. Residues, ends and D or L forms follow the SMILES beside them. Chains are numbered I, II in the order given. Actinocin(9to1) = Cc1c2oc3c(C)ccc(C(=O)[*:1])c3nc-2c(C(=O)[*:2])c(N)c1=O; aThr = C[C@H](O)[C@H](N)C(=O)O; NMeV = CN[C@H](C(=O)O)C(C)C; Sar = CNCC(=O)O
# Test system: nude mice, HT29 intrarenal xenograft, tumor weight T/C
# Test: NCI In Vivo Anticancer Drug Screen. Data for tumor model HT29;CX-1 Human Adenocarcinoma (MER+) (intrarenal inoculation) in NU/NU Swiss (nude) mice
# Conditions: endpoint: mean tumor weight change, higher = larger tumour
# Outline: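 Compounds were given to mice carrying transplantable tumors; a vehicle-dosed group served as control. The endpoint measured in each group was compared as a T/C quotient.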
# [1] = dose: 400.0 mg/kg/injection, schedule: Q04DX004 (sc), vehicle: saline with Tween-80
# [2] = dose: 600.0 mg/kg/injection, schedule: Q04DX004 (sc), vehicle: saline with Tween-80
# [3] = dose: 800.0 mg/kg/injection, schedule: Q04DX004 (sc), vehicle: saline with Tween-80
# [4] = dose: 1200.0 mg/kg/injection, schedule: Q04DX004 (sc), vehicle: saline with Tween-80
# [5] = dose: 150.0 mg/kg/injection, schedule: Q04DX004 (sc), vehicle: saline with Tween-80
# [6] = dose: 300.0 mg/kg/injection, schedule: Q04DX004 (sc), vehicle: saline with Tween-80
# [7] = dose: 37.5 mg/kg/injection, schedule: Q04DX004 (sc), vehicle: Klucel (hydroxypropylcellulose) (HPC)
# [8] = dose: 150.0 mg/kg/injection, schedule: Q04DX004 (sc), vehicle: Klucel (hydroxypropylcellulose) (HPC)
# [9] = dose: 300.0 mg/kg/injection, schedule: Q04DX004 (sc), vehicle: Klucel (hydroxypropylcellulose) (HPC)
# [10] = dose: 100.0 mg/kg/injection, schedule: Q01DX010 (sc), vehicle: saline
# [11] = dose: 200.0 mg/kg/injection, schedule: Q04DX004 (sc), vehicle: suspension in saline
# [12] = dose: 75.0 mg/kg/injection, schedule: Q04DX004 (sc), vehicle: saline with Tween-80
# [13] = dose: 600.0 mg/kg/injection, schedule: Q04DX004 (sc), vehicle: Klucel (hydroxypropylcellulose) (HPC)
# [14] = dose: 75.0 mg/kg/injection, schedule: Q04DX004 (sc), vehicle: saline
# [15] = dose: 150.0 mg/kg/injection, schedule: Q04DX004 (sc), vehicle: saline
# [16] = dose: 100.0 mg/kg/injection, schedule: Q01DX010 (sc), vehicle: saline with Tween-80
smiles,measurement,setting,value
N#C[C@H](OC1OC(COC2OC(CO)C(O)C(O)C2O)C(O)C(O)C1O)c1ccccc1 (stereo partly specified),T/C,"dose: 450.0 mg/kg/injection, schedule: Q04DX004 (sc), vehicle: suspension in saline",101 % of control
same,T/C,"dose: 900.0 mg/kg/injection, schedule: Q04DX004 (sc), vehicle: suspension in saline",67 % of control
same,T/C,"dose: 1800.0 mg/kg/injection, schedule: Q04DX004 (sc), vehicle: suspension in saline",56 % of control
same,T/C,"dose: 3600.0 mg/kg/injection, schedule: Q04DX004 (sc), vehicle: suspension in saline",69 % of control
O=c1cc(-c2ccccc2)[nH]c2c1CCCC2,T/C,"dose: 100.0 mg/kg/injection, schedule: Q04DX004 (sc), vehicle: saline with Tween-80",82 % of control
same,T/C,"dose: 200.0 mg/kg/injection, schedule: Q04DX004 (sc), vehicle: saline with Tween-80",70 % of control
same,T/C,[1],67 % of control
same,T/C,[2],37 % of control
same,T/C,[3],68 % of control
same,T/C,[4],58 % of control
same,T/C,"dose: 2400.0 mg/kg/injection, schedule: Q04DX004 (sc), vehicle: saline with Tween-80",101 % of control
CN=S(=O)(OCCCCCOS(=O)(=NC)c1ccccc1)c1ccccc1 (stereo unspecified),T/C,[5],66 % of control
same,T/C,[6],60 % of control
same,T/C,[2],27 % of control
COc1ccc2[nH]c3c(c2c1)CCNC3CC(C)CCC=C(C)C (stereo unspecified),T/C,[7],47 % of control
same,T/C,[8],62 % of control
same,T/C,[9],55 % of control
NC(=O)c1ncn(C2OC(CO)C(O)C2O)n1 (stereo unspecified),T/C,"dose: 225.0 mg/kg/injection, schedule: Q04DX004 (sc), vehicle: saline",93 % of control
same,T/C,"dose: 450.0 mg/kg/injection, schedule: Q04DX004 (sc), vehicle: saline",75 % of control
same,T/C,"dose: 900.0 mg/kg/injection, schedule: Q04DX004 (sc), vehicle: saline",61 % of control
Cc1ccc(NC(=O)Oc2ccc(Br)cc2Br)c([N+](=O)[O-])c1,T/C,[6],35 % of control
same,T/C,[2],52 % of control
same,T/C,[4],69 % of control
CNC(=O)ON(C(C)=O)C(=O)NC,T/C,"dose: 25.0 mg/kg/injection, schedule: Q01DX010 (sc), vehicle: saline",75 % of control
same,T/C,"dose: 50.0 mg/kg/injection, schedule: Q01DX010 (sc), vehicle: saline",109 % of control
same,T/C,"dose: 50.0 mg/kg/injection, schedule: Q04DX004 (sc), vehicle: saline",34 % of control
same,T/C,[10],13 % of control
same,T/C,"dose: 100.0 mg/kg/injection, schedule: Q04DX004 (sc), vehicle: suspension in saline",116 % of control
same,T/C,"dose: 150.0 mg/kg/injection, schedule: Q04DX004 (sc), vehicle: suspension in saline",114 % of control
same,T/C,[11],57 % of control
same,T/C,"dose: 250.0 mg/kg/injection, schedule: Q04DX004 (sc), vehicle: suspension in saline",18 % of control
CCN(CC)CCCNc1nccc2c(C)c3[nH]c4ccncc4c3cc12,T/C,"dose: 2.5 mg/kg/injection, schedule: Q01DX010 (sc), vehicle: other",117 % of control
same,T/C,"dose: 5.0 mg/kg/injection, schedule: Q01DX010 (sc), vehicle: other",108 % of control
same,T/C,"dose: 10.0 mg/kg/injection, schedule: Q01DX010 (sc), vehicle: other",56 % of control
C[Si](C)(CCl)N[Si](C)(C)CCl,T/C,[12],91 % of control
same,T/C,[5],84 % of control
same,T/C,[6],101 % of control
same,T/C,[2],78 % of control
C[C@]12C=CC(=O)C=C1CC[C@@H]1[C@@H]2C(=O)C[C@@]2(C)[C@H]1CC[C@]2(O)C(=O)CO,T/C,[8],18 % of control
same,T/C,[13],27 % of control
same,T/C,"dose: 1200.0 mg/kg/injection, schedule: Q04DX004 (sc), vehicle: Klucel (hydroxypropylcellulose) (HPC)",19 % of control
"Cc1c2oc3c(C)ccc(C(=O)N[C@@H]4C(=O)N[C@H](C(C)C)C(=O)N5CCC[C@H]5C(=O)N(C)CC(=O)N(C)[C@@H](C(C)C)C(=O)O[C@H]4C)c3nc-2c(C(=O)N[C@@H]2C(=O)N[C@H](C(C)C)C(=O)N3CCC[C@H]3C(=O)N(C)CC(=O)N(C)[C@@H](C(C)C)C(=O)O[C@H]2C)c(N)c1=O (I: [aThr][dV]P[Sar][NMeV] / II: [aThr][dV]P[Sar][NMeV]; ester I:1-I:C, II:1-II:C; linker I:N-II:N via Actinocin(9to1))",T/C,"dose: 25.0 micrograms/kg/injection, schedule: Q01DX010 (sc), vehicle: saline",31 % of control
CCC(C(=O)O)C(=O)O.[NH2-].[NH2-].[Pt+2],T/C,[14],92 % of control
same,T/C,[15],50 % of control
C=CCNc1nc2c(s1)CCc1cc(OC)c(OC)cc1-2,T/C,[5],38 % of control
same,T/C,[6],114 % of control
same,T/C,[2],113 % of control
same,T/C,[4],80 % of control
COc1cc2cc3cc4cc(OC)c(OC)cc4c(C)[n+]3cc2cc1OC (tested in a mixture with another compound),T/C,[11],118 % of control
same,T/C,"dose: 400.0 mg/kg/injection, schedule: Q04DX004 (sc), vehicle: suspension in saline",80 % of control
same,T/C,"dose: 800.0 mg/kg/injection, schedule: Q04DX004 (sc), vehicle: suspension in saline",98 % of control
CCCC(=O)O,T/C,[10],69 % of control
same,T/C,"dose: 200.0 mg/kg/injection, schedule: Q01DX010 (sc), vehicle: saline",65 % of control
same,T/C,"dose: 400.0 mg/kg/injection, schedule: Q01DX010 (sc), vehicle: saline",110 % of control
same,T/C,"dose: 800.0 mg/kg/injection, schedule: Q01DX010 (sc), vehicle: saline",79 % of control
C/C(=N/NC(N)=S)c1ccc2ccccc2c1,T/C,"dose: 12.5 mg/kg/injection, schedule: Q01DX010 (sc), vehicle: saline with Tween-80",177 % of control
same,T/C,"dose: 25.0 mg/kg/injection, schedule: Q01DX010 (sc), vehicle: saline with Tween-80",70 % of control
same,T/C,"dose: 50.0 mg/kg/injection, schedule: Q01DX010 (sc), vehicle: saline with Tween-80",57 % of control
same,T/C,[16],89 % of control
O=C(C/C(=N\C(=S)Nc1cc(C(F)(F)F)ccc1Cl)NO)N1CCCC1,T/C,[12],51 % of control
same,T/C,[5],49 % of control
same,T/C,[6],80 % of control
same,T/C,[2],70 % of control
O=c1n(CC2CO2)c(=O)n(CC2CO2)n1CC1CO1 (stereo unspecified),T/C,"dose: 37.5 mg/kg/injection, schedule: Q04DX004 (sc), vehicle: suspension in saline",76 % of control
Cc1ncc([N+](=O)[O-])n1CCSC(N)=O,T/C,[1],112 % of control
same,T/C,[3],76 % of control
same,T/C,"dose: 1600.0 mg/kg/injection, schedule: Q04DX004 (sc), vehicle: saline with Tween-80",111 % of control
O=c1[nH]cnc2n[nH]nc12,T/C,[9],94 % of control
same,T/C,[13],50 % of control
same,T/C,"dose: 2400.0 mg/kg/injection, schedule: Q04DX004 (sc), vehicle: Klucel (hydroxypropylcellulose) (HPC)",30 % of control
COc1cc2cc[n+](C)c(Cc3ccccc3)c2cc1OC,T/C,"dose: 18.75 mg/kg/injection, schedule: Q04DX004 (sc), vehicle: Klucel (hydroxypropylcellulose) (HPC)",73 % of control
same,T/C,[7],108 % of control
same,T/C,"dose: 75.0 mg/kg/injection, schedule: Q04DX004 (sc), vehicle: Klucel (hydroxypropylcellulose) (HPC)",54 % of control
COC1=NCN=C2SC=C(N)N=C12,T/C,"dose: 37.5 mg/kg/injection, schedule: Q04DX004 (sc), vehicle: saline",86 % of control
same,T/C,[14],70 % of control
same,T/C,[15],73 % of control
CCOC(=O)c1ccc(NC(=O)Nc2nccs2)cc1,T/C,[16],54 % of control
same,T/C,"dose: 200.0 mg/kg/injection, schedule: Q01DX010 (sc), vehicle: saline with Tween-80",58 % of control
same,T/C,"dose: 400.0 mg/kg/injection, schedule: Q01DX010 (sc), vehicle: saline with Tween-80",74 % of control
same,T/C,"dose: 800.0 mg/kg/injection, schedule: Q01DX010 (sc), vehicle: saline with Tween-80",67 % of control
CCC/C=C/C=C/C(=O)OC1/C(=C/C(=O)OC)CC2CC(C(C)O)OC(=O)CC(O)CC3CC(OC(C)=O)C(C)(C)C(O)(CC4C/C(=C/C(=O)OC)CC(/C=C/C(C)(C)C1(O)O2)O4)O3 (stereo unspecified),T/C,"dose: 0.25 mg/kg/injection, schedule: Q04DX004 (sc), vehicle: saline + alcohol",95 % of control
same,T/C,"dose: 0.5 mg/kg/injection, schedule: Q04DX004 (sc), vehicle: saline + alcohol",110 % of control
same,T/C,"dose: 1.0 mg/kg/injection, schedule: Q04DX004 (sc), vehicle: saline + alcohol",33 % of control
same,T/C,"dose: 2.0 mg/kg/injection, schedule: Q04DX004 (sc), vehicle: saline + alcohol",47 % of control
same,T/C,"dose: 4.0 mg/kg/injection, schedule: Q04DX004 (sc), vehicle: saline + alcohol",53 % of control
same,T/C,"dose: 8.0 mg/kg/injection, schedule: Q04DX004 (sc), vehicle: saline + alcohol",88 % of control
